The values that follow come from patent publication US8309558B2, “Compounds for the treatment of hepatitis C” (Bristol-Myers Squibb Company, priority 2008, dated 2012).

The structures appear in SMILES notation. Where two headings read alike, the source gives them in different places.

For experiment [1], the target named is T1, HCV NS5B RdRp genotype 1b (Hepatitis C virus genotype 1b, UniProt Q9WMX2).
T1 construct: The protein was expressed with an 18 amino acid C-terminal truncation to enhance the solubility; made in house; host or cells: E. coli BL21(DE3), pET21a vector
T1 sequence (Q9WMX2 2420-2992): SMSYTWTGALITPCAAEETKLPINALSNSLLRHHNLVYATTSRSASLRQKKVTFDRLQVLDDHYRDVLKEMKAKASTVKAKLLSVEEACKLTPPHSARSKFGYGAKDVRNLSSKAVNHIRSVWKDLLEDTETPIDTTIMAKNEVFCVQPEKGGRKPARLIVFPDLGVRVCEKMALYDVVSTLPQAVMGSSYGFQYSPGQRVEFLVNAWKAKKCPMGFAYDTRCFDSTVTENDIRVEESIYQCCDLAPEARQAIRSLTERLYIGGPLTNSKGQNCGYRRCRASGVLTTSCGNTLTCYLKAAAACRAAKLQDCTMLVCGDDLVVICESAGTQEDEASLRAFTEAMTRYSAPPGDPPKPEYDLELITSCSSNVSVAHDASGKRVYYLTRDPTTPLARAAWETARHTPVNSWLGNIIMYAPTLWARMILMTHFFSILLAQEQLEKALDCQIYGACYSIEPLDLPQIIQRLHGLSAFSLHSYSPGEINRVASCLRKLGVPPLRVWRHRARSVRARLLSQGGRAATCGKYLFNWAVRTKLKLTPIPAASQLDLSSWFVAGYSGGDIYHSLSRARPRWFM
Put plainly: Standard HCV NS5B RdRp enzyme assay. It counts as biochemical. The method, boiled down:
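C-terminally truncated (18 aa) genotype 1b NS5B from E. coli, 28 nM, with 6 nM polyA template, 180 nM biotinylated oligo-dT12 primer and 3H-UTP (0.29 μM total UTP). Hepes pH 7.5 buffer with 2% DMSO; 60 min at 30° C. EDTA stop, SPA read-out; IC50 from seven concentrations by four-parameter fit.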

In experiment [2] the test system is HCV replicon cells. In words: HCV replicon FRET / luciferase assay (96-well plates). The note with it: Hepatitis C virus. It counts as cell-based. The method, boiled down:
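Trypsinized replicon cells were seeded with compound titrations and incubated at 37 °C for various times. Alamar blue was added to gauge toxicity. Plates were then rinsed and either lysed with FRET peptide reagent for kinetic fluorescence reading or switched to phenol red-free DMEM for luciferase measurement.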
On the technique in general: In antiviral work, replicon cells carry a viral genome segment that copies itself.

Where [3] appears, read: Table 1b, HCV NS5B RdRp genotype 1b, read-out: IC50.
Where [4] appears, read: Table 1b, HCV replicon, read-out: EC50.
[5] abbreviates: Table 1a, HCV NS5B RdRp genotype 1b, read-out: IC50.
Where [6] appears, read: Table 1a, HCV replicon, read-out: EC50.

As to `CNC(=O)c1c(-c2ccc(F)cc2)oc2ccc(-c3cc(C(=O)NC4(c5nnc(C(F)(F)F)[nH]5)CC4)ccc3C)cc12`, the IC50 (in general, the concentration that inhibits the measured activity by half) in experiment [1] (setting [3]) is under 250 nM. The EC50 (commonly the midpoint of the concentration-response curve) in experiment [2] (setting [4]) is under 250 nM.
With `CNC(=O)c1c(-c2ccc(F)cc2)oc2ccc(-c3cccc(C(=O)OC)c3)cc12`, in experiment [1] (setting [5]), the IC50 is over 10000 nM. For the same compound, the EC50 in experiment [2] (setting [6]) is over 3700 nM.
`CNC(=O)c1c(-c2ccc(F)cc2)oc2ccc(-c3cccc(C(=O)N4C5CCC4CN(C)C5)c3)cc12` showed an IC50 in experiment [1] of 1000 to 10000 nM. The concentration for a half-maximal effect (EC50) in experiment [2] lay in the range of 1000 to 10000 nM.
With `CNC(=O)c1c(-c2ccc(F)cc2)oc2ccc(-c3cccc(C(=O)N[C@H](CO)Cc4c[nH]cn4)c3)cc12`, in experiment [1] (setting [5]), the IC50 was in the range of 1000 to 10000 nM. Also, the half-maximal effective concentration (EC50) in experiment [2] (setting [6]) was 1000 to 10000 nM.
Consider `CCC[C@H](CO)NC(=O)c1cccc(-c2ccc3oc(-c4ccc(F)cc4)c(C(=O)NC)c3c2)c1` [drawing 228], for which the IC50 in experiment [1] (setting [5]) lay in the range of 1000 to 10000 nM. Also, the concentration giving a half-maximal response (EC50) in experiment [2] (setting [6]) is 1000 to 10000 nM.
As for `CCOc1cc(C)c(-c2ccc3oc(-c4ccc(F)cc4)c(C(=O)NC)c3c2)cc1C(=O)NC1(c2ccccn2)CC1`, the IC50 in experiment [1] (Table 1d (class symbols), HCV NS5B RdRp genotype 1b, read-out: IC50) fell in the range of 1 to 250 nM. In experiment [2] (24 h, Table 1d (class symbols), HCV replicon, read-out: EC50), the EC50 lay in the range of 1 to 250 nM.
Consider `CNC(=O)c1c(-c2ccc(F)cc2)oc2ccc(-c3cccc(S(C)(=O)=O)c3)cc12`, for which the half-maximal inhibitory concentration (IC50) in experiment [1] (setting [5]) is over 10000 nM. For the same compound, the EC50 in experiment [2] (setting [6]) lay in the range of 1000 to 10000 nM.
In the case of `CNC(=O)c1c(-c2ccc(F)cc2)oc2cc(NS(C)(=O)=O)c(-c3cc(C(=O)NC4(c5ccccc5)CC4)ccc3C)cc12`, the IC50 in experiment [1] (setting [3]) is under 250 nM. Besides, the EC50 in experiment [2] (setting [4]) was under 250 nM.
With `CNC(=O)c1c(-c2ccc(F)cc2)oc2ccc(-c3cc(C(=O)NC4(CO)CC4)ccc3C)cc12`, the IC50 in experiment [1] (setting [3]) was 1000 to 10000 nM. Further, in experiment [2] (setting [4]), the half-maximal effective concentration (EC50) fell in the range of 1000 to 10000 nM.
Turning to `CNC(=O)c1c(-c2ccc(F)cc2)oc2ccc(-c3cccc(C(=O)N4CCC[C@H]4C(=O)N(C)C)c3)cc12`, the half-inhibitory concentration (IC50) in experiment [1] (setting [5]) lay within 250 to 1000 nM. Further, in experiment [2] (setting [6]), the EC50 lay in the range of 250 to 1000 nM.
Take `CNC(=O)c1c(-c2ccc(F)cc2)oc2ccc(-c3cccc(C(=O)Nc4ccccc4)c3)cc12`: the half-inhibitory concentration (IC50) in experiment [1] (setting [5]) was under 250 nM. Also, the EC50 in experiment [2] (setting [6]) was under 250 nM.
With `CNC(=O)c1c(-c2ccc(F)cc2)oc2ccc(-c3ccc(C(=O)N(C)CCO)cc3)cc12`, the IC50 in experiment [1] (setting [5]) lay within 1000 to 10000 nM. Besides, the EC50 in experiment [2] (setting [6]) was over 10000 nM.
In the case of `CNC(=O)c1c(-c2ccc(F)cc2)oc2ccc(-c3cc(C(=O)NC4(c5ccccn5)CC4)c(F)cc3Cl)cc12`, the IC50 in experiment [1] (setting [3]) was under 250 nM. Further, the concentration giving a half-maximal response (EC50) in experiment [2] (setting [4]) was under 250 nM.
`CNC(=O)c1c(-c2ccc(F)cc2)oc2ccc(-c3cccc(C(=O)N[C@H]4CCC[C@H]4C(N)=O)c3)cc12`: the IC50 in experiment [1] (setting [5]) lay in the range of 250 to 1000 nM. Moreover, the EC50 in experiment [2] (setting [6]) was in the range of 250 to 1000 nM.
On to `CNC(=O)c1c(-c2ccc(F)cc2)oc2cc([N+](=O)[O-])c(-c3cc(C(=O)NC4(c5ccccc5)CC4)ccc3F)cc12`, for which the 50% inhibitory concentration (IC50) in experiment [1] (setting [3]) was under 250 nM. Moreover, the EC50 in experiment [2] (setting [4]) is under 250 nM.
In the case of `CCCCNC(=O)c1cccc(-c2ccc3oc(-c4ccc(F)cc4)c(C(=O)NC)c3c2)c1`, the half-maximal inhibitory concentration (IC50) in experiment [1] (setting [5]) was under 250 nM. Further, the concentration for a half-maximal effect (EC50) in experiment [2] (setting [6]) was under 250 nM.
For the compound `CNC(=O)c1c(-c2ccc(F)cc2)oc2ccc(-c3cccc(C(=O)NC(C)CCc4ccccc4)c3)cc12` (stereo not shown), in experiment [1] (setting [5]), the IC50 lay within 250 to 1000 nM. Also, the EC50 in experiment [2] (setting [6]) fell in the range of 250 to 1000 nM.
With `CNC(=O)c1c(-c2ccc(F)cc2)oc2ccc(-c3cc(C(=O)NC4(c5nnc(-c6ccncc6)[nH]5)CC4)ccc3C)cc12`, in experiment [1] (setting [3]), the concentration for half-maximal inhibition (IC50) is under 250 nM. Further, in experiment [2] (setting [4]), the concentration for a half-maximal effect (EC50) is under 250 nM.
On to `CNC(=O)c1c(-c2ccc(F)cc2)oc2ccc(-c3cc(C(=O)NC(C)(C)CN4CCOCC4)ccc3C)cc12`, for which, in experiment [1] (setting [3]), the concentration for half-maximal inhibition (IC50) was under 250 nM. In addition, the EC50 in experiment [2] (setting [4]) was under 250 nM.
Turning to `CNC(=O)c1c(-c2ccc(F)cc2)oc2ccc(-c3cccc(C(=O)Nc4n[nH]cc4C(N)=O)c3)cc12`, in experiment [1] (setting [5]), the IC50 is 1000 to 10000 nM. Also, in experiment [2] (setting [6]), the 50% effective concentration (EC50) is over 10000 nM.
For `CNC(=O)c1c(-c2ccc(F)cc2)oc2ccc(-c3cc(NC(=O)C4(c5ccccc5)CC4)ccc3C)cc12`, the IC50 in experiment [1] (setting [3]) was in the range of 1000 to 10000 nM. Moreover, the EC50 in experiment [2] (setting [4]) fell in the range of 250 to 1000 nM.
With `CNC(=O)c1c(-c2ccc(F)cc2)oc2ccc(-c3cc(C(=O)NCC(C)C)ccc3OCCC3CCCCN3)cc12` (stereo not shown), the IC50 in experiment [1] (setting [3]) was under 250 nM. In addition, the half-maximal effective concentration (EC50) in experiment [2] (setting [4]) was under 250 nM.
Take `CNC(=O)c1c(-c2ccc(F)cc2)oc2ccc(-c3cc(C(=O)NC4(c5nc(C)no5)CC4)c(OC)cc3C)cc12` [drawing 500]: the IC50 in experiment [1] (setting [3]) is under 250 nM. Besides, in experiment [2] (setting [4]), the EC50 is under 250 nM.
For the compound `CNC(=O)c1c(-c2ccc(F)cc2)oc2ccc(-c3cccc(C(=O)Nc4cccc(C#N)c4)c3)cc12`, the half-inhibitory concentration (IC50) in experiment [1] (setting [5]) fell in the range of 250 to 1000 nM. In experiment [2] (setting [6]), the EC50 is under 250 nM.
On to `CNC(=O)c1c(-c2ccc(F)cc2)oc2ccc(-c3cccc(C(=O)NCc4ccncc4)c3)cc12`, for which the half-maximal inhibitory concentration (IC50) in experiment [1] (setting [5]) is under 250 nM. In experiment [2] (setting [6]), the EC50 fell in the range of 250 to 1000 nM.
Turning to `CNC(=O)c1c(-c2ccc(F)cc2)oc2ccc(-c3ccc(OC4CCCCO4)cc3)cc12` (stereo not shown), the IC50 in experiment [1] (setting [5]) was over 10000 nM. The EC50 in experiment [2] (setting [6]) was 1000 to 10000 nM.
Regarding `CNC(=O)c1c(-c2ccc(F)cc2)oc2ccc(-c3cccc(C(=O)NCc4ccc(F)cc4)c3)cc12`, in experiment [1] (setting [5]), the IC50 was under 250 nM. Also, the concentration for a half-maximal effect (EC50) in experiment [2] (setting [6]) was under 250 nM.
Take `CNC(=O)c1c(-c2ccc(F)cc2)oc2ccc(-c3cc(C(=O)NCC(C)C)ccc3OCC3CCCN3C(=O)OC(C)(C)C)cc12` (stereo not shown): the IC50 in experiment [1] (setting [3]) was over 10000 nM. In experiment [2] (setting [4]), the EC50 lay within 1000 to 10000 nM.
Regarding `CNC(=O)c1c(-c2ccc(F)cc2)oc2ccc(-c3cc(Cl)cnc3F)cc12`, the 50% inhibitory concentration (IC50) in experiment [1] (setting [5]) was over 10000 nM. For the same compound, the EC50 in experiment [2] (setting [6]) fell in the range of 1000 to 10000 nM.
In the same order, the values of `CNC(=O)c1c(-c2ccc(F)cc2)oc2ccc(-c3cccc(C(=O)N4CC[C@H](NC(C)=O)C4)c3)cc12` [drawing 277] are 1000 to 10000 nM and over 10000 nM.
With `CNC(=O)c1c(-c2ccc(F)cc2)oc2ccc(-c3cc(C(=O)NC4(C(=O)OC)CC4)ccc3C)cc12`, the concentration for half-maximal inhibition (IC50) in experiment [1] (setting [3]) is under 250 nM. For the same compound, in experiment [2] (setting [4]), the EC50 was under 250 nM.
For `CNC(=O)c1c(-c2ccc(F)cc2)oc2ccc(-c3cccc(C(=O)NCc4cccc(C)c4)c3)cc12`, the IC50 in experiment [1] (setting [5]) is under 250 nM. For the same compound, the EC50 in experiment [2] (setting [6]) was under 250 nM.
`CNC(=O)c1c(-c2ccc(F)cc2)oc2ccc(-c3cccc(S(=O)(=O)NC(C)(C)C)c3)cc12`: the IC50 in experiment [1] (setting [5]) is over 4000 nM. The EC50 in experiment [2] (setting [6]) was over 10000 nM.
For `CNC(=O)c1c(-c2ccc(F)cc2)oc2ccc(-c3cccc(C(=O)N4CCCC(CO)C4)c3)cc12` (stereo not shown), the IC50 in experiment [1] (setting [5]) fell in the range of 1000 to 10000 nM. In addition, the half-maximal effective concentration (EC50) in experiment [2] (setting [6]) lay within 1000 to 10000 nM.
Consider `CNC(=O)c1c(-c2ccc(F)cc2)oc2ccc(-c3cc(C(=O)NCC(C)C)ccc3OCc3ccccn3)cc12`, for which the 50% inhibitory concentration (IC50) in experiment [1] (setting [3]) was under 250 nM. The EC50 in experiment [2] (setting [4]) is under 250 nM.
For `CNC(=O)c1c(-c2ccc(F)cc2)oc2ccc(-c3cccc(C(=O)Nc4ccnn4C)c3)cc12`, in experiment [1] (setting [5]), the IC50 was 250 to 1000 nM. Also, the concentration for a half-maximal effect (EC50) in experiment [2] (setting [6]) fell in the range of 250 to 1000 nM.
`CNC(=O)c1c(-c2ccc(F)cc2)oc2ccc(-c3cc(C(=O)NC4(c5coc(C)n5)CC4)c(OC)cc3C)cc12`: in experiment [1] (setting [3]), the IC50 was under 250 nM. The EC50 in experiment [2] (setting [4]) was under 250 nM.
Take `CNC(=O)c1c(-c2ccc(F)cc2)oc2ccc(-c3cccc(C(=O)NCc4cccc(O)c4)c3)cc12`: in experiment [1] (setting [5]), the IC50 is 250 to 1000 nM. The EC50 in experiment [2] (setting [6]) is under 250 nM.
For `CNC(=O)c1c(-c2ccc(F)cc2)oc2ccc(-c3cccc(C(=O)N(C)CCO)c3)cc12` the same measures were 1000 to 10000 nM and 1000 to 10000 nM.
For `CNC(=O)c1c(-c2ccc(F)cc2)oc2ccc(-c3cc(C(=O)NCC(C)C)ccc3O)cc12` the same measures were under 250 nM and under 250 nM.
`CNC(=O)c1c(-c2ccc(F)cc2)oc2ccc(-c3cccc(C(=O)NC4CN5CCC4CC5)c3)cc12` (stereo not shown) gave a 50% inhibitory concentration (IC50) in experiment [1] of 1000 to 10000 nM. The compound further came in with a 50% effective concentration (EC50) in experiment [2] of 1000 to 10000 nM.
